Data from patent US8597632B2, “Anionic oligosaccharide conjugates” (Glycan Biosciences LLC, priority 2008, dated 2013).

Assays:
[1] = molecular target: T1, recombinant human IL-4 (rhIL-4) (Homo sapiens, UniProt P05112); test: BIAcore: inhibition of IL-4 binding to a heparin chip; details: End point heparin
T1 construct: host or cells: baculovirus expression system
T1 sequence (P05112 25-153): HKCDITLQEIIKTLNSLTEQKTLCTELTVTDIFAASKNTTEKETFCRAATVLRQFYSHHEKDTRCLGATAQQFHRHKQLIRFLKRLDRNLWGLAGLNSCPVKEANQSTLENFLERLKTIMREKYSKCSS
Text: (§1) The optical phenomenon of surface plasmon resonance is used to monitor physical interactions between molecules. Passing a solution of a potential protein ligand (e.g. IL-4, IL-5, eotaxin-1, eotaxin-2, IL-8 or MCP-1) over a sensor surface to which a target (e.g. heparin) is coupled monitors the real-time binding of protein ligands to the immobilized target. Detection is achieved by measuring refractive index changes very close to the sensor surface. When the refractive index is altered, the angle at which plasmon resonance occurs changes and this change directly correlates with the amount of protein interacting with the surface. A BIAcore 2000 is conveniently used. […]
(§2) Biotinylated heparin is immobilized on the biosensor chip. […] Solutions containing potential protein ligands of interest are injected over the sensor chip surface, and the binding is measured in real time (Fernig, In: Proteoglycan protocols, Ed. R. V. Iozzo, Humana Press, Totowa, N.J., USA, 2001). Baculovirus expressed recombinant human IL-4 (rhIL-4) and baculovirus expressed recombinant human IL-5 (rhIL-5) readily bind to heparin immobilized by this method (see PCT/AU2005/000551). […] Similarly, recombinant human eotaxin-1 (CCL11) expressed in E. coli binds readily to immobilized heparin and binding is specific as there is little eotaxin binding to sensor chips lacking heparin (see 30544601 PCT glycan151). […]

eotaxin-2 (CCL24) = molecular target: T2, eotaxin-2 (CCL24) (Homo sapiens, UniProt O00175); test: BIAcore: inhibition of Eotaxin-2 binding to immobilized heparin; details: % relative to heparin concentration required to inhibit chemokine binding by 50%; heparin set at 100%
T2 construct: host or cells: E. coli
T2 sequence (O00175 27-119): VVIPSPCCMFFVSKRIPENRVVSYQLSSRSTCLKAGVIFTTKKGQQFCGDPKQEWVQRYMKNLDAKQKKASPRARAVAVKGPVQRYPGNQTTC
Text: as §1, §2

MCP-1 (CCL2) = molecular target: T3, MCP-1 (CCL2) (Homo sapiens, UniProt P13500); test: BIAcore: inhibition of MCP-1 binding to immobilized heparin; details: % relative to heparin concentration required to inhibit chemokine binding by 50%; heparin set at 100%
T3 construct: host or cells: E. coli
T3 sequence (P13500 24-99): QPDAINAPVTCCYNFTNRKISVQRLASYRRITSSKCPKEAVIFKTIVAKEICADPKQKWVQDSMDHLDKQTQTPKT
Text: as §1, §2

Human leukocyte elastase = molecular target: T4, Human leukocyte elastase (Homo sapiens, UniProt P08246); test: Human leukocyte elastase fluorogenic substrate assay; assay type: biochemical; details: elastase 5 nM/well, MeOSuc-Ala-Ala-Pro-Val-amido-methylcoumarin 20 μM/well, pH 7.4, 37° C., 60 minutes; read-out: Inhibition of Elastase activity IC50
T4 sequence (P08246 30-267): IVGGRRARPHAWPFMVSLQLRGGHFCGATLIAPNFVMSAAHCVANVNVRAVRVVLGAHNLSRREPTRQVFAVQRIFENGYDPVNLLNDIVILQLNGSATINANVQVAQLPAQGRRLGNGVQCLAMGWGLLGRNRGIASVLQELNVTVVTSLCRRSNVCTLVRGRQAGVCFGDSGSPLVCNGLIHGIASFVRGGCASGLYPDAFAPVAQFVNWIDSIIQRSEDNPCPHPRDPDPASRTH
Description: Elastase is a protein that is a potential target for the treatment of COPD. Elastase assays were performed in 96-well plastic microplates for easy quantification by the fluorescent plate reader. Human leukocyte elastase (5 nM/well) was incubated in the presence ofrabsence of sulfated polysaccharides, with the fluorogenic substrate MeOSuc-Ala-Ala-Pro-Val-amido-methylcoumarin (20 μM/well) in a sodium phosphate buffer, pH 7.4. The mixture was incubated at 37° C. for 60 minutes before the reaction was stopped by the addition of 10 μL/well of […] acetic acid and the mixture transferred to a 96-well microplate with fluorescence being measured using an excitation wavelength of 355 nm and an emission wavelength of 460 nm. Various concentrations of inhibitors were used to allow the calculation of the concentration of anionic oligosaccharide conjugate required to inhibit enzyme activity by 50% (IC50). […] The linked xylopentaose series were not very effective inhibitors of elastase activity. In this assay heparin has an IC50 of approximately 200 nM (Table 6).

IL-8 (CXCL8) = molecular target: T5, IL-8 (CXCL8) (Homo sapiens, UniProt P10145); test: BIAcore: inhibition of IL-8 binding to immobilized heparin; details: % relative to heparin concentration required to inhibit chemokine binding by 50%; heparin set at 100%
T5 construct: host or cells: E. coli
T5 sequence (P10145 21-99): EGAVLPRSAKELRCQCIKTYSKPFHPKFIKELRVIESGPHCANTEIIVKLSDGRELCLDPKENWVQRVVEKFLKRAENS
Text: as §1, §2

[2] = molecular target: T6, recombinant human IL-5 (rhIL-5) (Homo sapiens, UniProt P05113); test: BIAcore: inhibition of IL-5 binding to a heparin chip; details: Biotin-heparin
T6 construct: host or cells: baculovirus expression system
T6 sequence (P05113 20-134): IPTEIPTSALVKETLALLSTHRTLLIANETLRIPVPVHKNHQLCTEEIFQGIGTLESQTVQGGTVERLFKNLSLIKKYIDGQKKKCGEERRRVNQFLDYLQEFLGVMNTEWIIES
Text: as §1, §2

Heparin
IC50 [1]: 3.3 µM
Concentration for 50% inhibition of Eotaxin-2 binding to heparin chip, as % of heparin's (eotaxin-2 (CCL24)): 100%
IC50 relative to heparin (% of heparin IC50) (MCP-1 (CCL2)): 100%
IC50 (Human leukocyte elastase): ~0.2 µM
Concentration for 50% inhibition of chemokine binding relative to heparin (IL-8 (CXCL8)): 100%
IC50 [2]: 0.037 µM
